What was measured:
[1] = test system: female ICR mice; experiment: Estrous cycle stage by vaginal smears; assay type: in vivo, mouse
Description: Female ICR mice at least 3 months old were administered embodied compounds of this invention (Compound 79 and Compound 68) (6 mg/Kg) or DMSO alone (0.5%) by subcutaneous administration. Vaginal smears were taken at baseline and at 12 hours following the administration to determine estrous cycle stage and mice were then sacrificed.

[2] = test system: FSH; experiment: FSH expression by RT-PCR in pituitary gland cells; assay type: cell-based, mouse; conditions: 50 nM
Description: FIGS. 29A, 29B, 29C and 29D: The embodied compounds affect the expression of gonadotropin hormones in pituitary gland cells. Cells (L T2) derived from the mouse pituitary gland were assessed for their secretion of LH and FSH at 6 (FIGS. 29A and 29B) and 12 hours (FIGS. 29C and 29D) following treatment with the indicated embodied compounds (50 nM). FSH and LH expression was determined by RT-PCR, and quantified from 5 different experiments, as assessed for significance, using the t test, one way ANOVA.

[3] = test system: mouse ovary; experiment: Hematoxylin-eosin histology of mouse ovary; assay type: in vivo; conditions: for ovary histology: 6 mg/Kg single dose at Di-estrus stage; for ovary histology / ovary histology (follicles, granulosa cells): 12 hours; for ovary histology (follicles, granulosa cells): 6 mg/Kg single dose at met-estrus stage; for ovary histology (corpus luteum): 6 mg/Kg single dose at pro-estrus and estrus stages, 12 hrs
Description: The ovaries were weighted; one was taken for protein extraction for measuring telomerase activity by TRAP assay, and the other one for the histological examination using hematoxylin-eosin staining of the ovary and its follicles.
The mice ovaries were removed and fixed with 4% paraformaldehyde overnight, dehydrated in increasing ethanol concentrations to xylene, and embedded in paraffin. A rotary microtome was used to produce 5 μm sections, which were mounted on Superfrost plus slides. The sections were dried and heated at 37° C. overnight and stored in dry place. Paraffin-embedded sections were deparaffinized in xylene and rehydrated in decreasing concentrations of ethanol. Then the sections stained with hematoxylin-eosin or subjected to immunochemical and Immunofluorescent assays [Liani-Leibson, K., I. Har-Vardi, and E. Priel, Inhibition of topoisomerase I by anti-cancer drug altered the endometrial cyclicity and receptivity. Curr Mol Med, 2014. 14(1): p. 141-50].

[4] = injected at the diestrus or metestrus stages
[5] = single dose injected in the proestrus or estrus stages

CC(c1cc(Br)c(O)c(Br)c1)(c1cc(Br)c(O)c(Br)c1)c1cc(Br)c(O)c(Br)c1 [Compound 68]
estrous cycle stage 12 hrs post treatment [1, 4]: No changes in the estrous cycle stage
estrous cycle stage 12 hrs post treatment [1, 5]: in the metestrus stage
FSH expression ([2]; 6 hours, vs untreated): decreased FSH expression relative to untreated samples
ovary histology [3]: a plurality of corpus luteum (CL)
ovary histology (follicles, granulosa cells) [3]: more developed follicles (white arrow) and plurality of layers of granulosa cells (GC) around the oocytes
ovary histology (corpus luteum) [3]: more corpus luteum (CL) than in the control group

CCOCc1cc(C(C)(c2cc(COCC)c(O)c(COCC)c2)c2cc(COCC)c(O)c(COCC)c2)cc(COCC)c1O [Compound 79]
estrous cycle stage 12 hrs post treatment [1, 4]: No changes in the estrous cycle stage
estrous cycle stage 12 hrs post treatment [1, 5]: in the metestrus stage
FSH expression ([2]; 12 hours): decreased FSH levels
ovary histology [3]: multiple layers of granulosa cells (GC) around the oocytes
ovary histology (follicles, granulosa cells) [3]: more developed follicles (white arrow) and plurality of layers of granulosa cells (GC) around the oocytes
ovary histology (corpus luteum) [3]: more corpus luteum (CL) than in the control group

— patent US12576047B2, “Telomerase activating compounds for use in fertility and related applications” (Neuromagen Pharma Ltd, priority 2017, dated 2026)
